Tests used:
[1] = system: tissue factor mRNA (TF mRNA); assay: Northern blot of tissue factor mRNA in human vascular smooth muscle cells; format: cell-based; details: thrombin 3 U/ml for 4 hours
Description: The cells are human vascular smooth muscle cells equivalent to the cells used in the above experiment. 28S rRNA is loaded on as the internal standard. Human TF cDNA was used as the probe. The cells were in each case treated without and with thrombin (3 U/ml) for 4 hours.

[2] = system: human vascular smooth muscle cells (HAOSMC); assay: procoagulant activity of human vascular smooth muscle cells (thrombin formation in recalcified platelet-poor plasma); format: cell-based; details: additional administration of thrombin; cells expressing sgk-WT or sgk-MT; effect more pronounced and more rapid with intact kinase
Description: In FIG. 1, the procoagulant activity, in % of the maximum value, is plotted against the time after recalcification. In the experiment relating to FIG. 1, the procoagulant activity of human vascular smooth muscle cells (HAOSMC) was measured by measuring thrombin formation during the coagulation process in recalcified blood platelet-poor plasma (PPP) (Beguin S, Lidhout T, Hemker H C: Throm. Haemost. 61: 25-29, […]). For this, confluent vascular smooth muscle cells were kept for 24 hours in serum-free medium, then washed three times in HEPES-tyrode solution, and then incubated with human PPP. The formation of thrombin was induced by adding 16.7 mM CaCl2 to the incubation medium. In each case 20 μl of the supernatant were removed every one to two minutes and the formation of thrombin in the removed volume was determined using the dye S-2238 (Haemochrom Diagnostica). The optical density was determined at 405 nm in a spectrophotometer (Uvikon, Contron-instruments).

thrombin
transcription of the tissue factor mRNA ([1]; cells containing active SGK (W) as compared with control cells): upregulated | transcription of the tissue factor mRNA ([1]; cells containing inactive SGK mutant (M)): reduced | increase in procoagulant activity, in % of the maximum value, against time after recalcification [2]: accelerated
